Data: patent US12064398B2, “Parenteral formulations” (Jazz Pharmaceuticals Research UK Limited, priority 2016, dated 2024)

Assay: Solubility screening of CBD in solvents/diluents/surfactants
Type: physicochemical
Method: […] All the vials were sonicated tor 5 minutes and then left on a roller mixer, mixing for 48 hours. The roller mixer was covered with aluminium foil to prevent light exposure.
After 48 hours, all samples were centrifuged, and the supernatants taken (250 or 500 μL) using a Gilson pipette and added into a 10 ml volume flask. Methanol was used to make up the volume and the samples were tested by HPLC. Sample numbers 5, 9 and 10 were assayed using visual observation as the amount of API that could be added was so high.

## C=C(C)[C@@H]1CCC(C)=C[C@H]1c1c(O)cc(CCCCC)cc1O [CBD, cannabidiol]
Crodosal HS (0.5% w/v), HPLC
  ASSAY CBD: 2.6529 mg/mL
Crodosal HS (1% w/v), HPLC
  ASSAY CBD: 5.4462 mg/mL
Crodosal HS (2% w/v), HPLC
  ASSAY CBD: 5.0344 mg/mL
Crodosal HS (3% w/v), HPLC
  ASSAY CBD: 6.3465 mg/mL
Crodosal HS (4% w/v), HPLC
  ASSAY CBD: 7.5569 mg/mL
Crodosal HS (5% w/v), HPLC
  ASSAY CBD: 7.9983 mg/mL
ETOH (0.5% v/v), HPLC
  ASSAY CBD: 0.0496 mg/mL
ETOH (1% v/v), HPLC
  ASSAY CBD: 0.0426 mg/mL
ETOH (3% v/v), HPLC
  ASSAY CBD: 0.0054 mg/mL
ETOH (5% v/v), HPLC
  ASSAY CBD: 0.0244 mg/mL
ETOH (100% v/v), visual observation
  ASSAY CBD: >1000 mg/mL
Glucose (5% w/v), HPLC
  ASSAY CBD: 0.0008 mg/mL
Glucose (10% w/v), HPLC
  ASSAY CBD: 0.2379 mg/mL
Glycerol (10% v/v), HPLC
  ASSAY CBD: 0.0029 mg/mL
Glycerol (20% v/v), HPLC
  ASSAY CBD: 0.0437 mg/mL
Glycerol (40% v/v), HPLC
  ASSAY CBD: 0.0859 mg/mL
Mannitol (5% w/v), HPLC
  ASSAY CBD: 0.0009 mg/mL
Mannitol (10% w/v), HPLC
  ASSAY CBD: 0.0148 mg/mL
PEG400 (5% v/v), HPLC
  ASSAY CBD: 0.1596 mg/mL
PEG400 (15% v/v), HPLC
  ASSAY CBD: 0.1946 mg/mL
PEG400 (25% v/v), HPLC
  ASSAY CBD: 0.1617 mg/mL
PEG400 (100% v/v), visual observation
  ASSAY CBD: >400 mg/mL
PEG400 and ethanol increased to 50% in water
  dissolution of the 10 mg of CBD added: did not dissolve completely
PVP K12 (1% w/v), HPLC
  ASSAY CBD: 0.0615 mg/mL
PVP K12 (2% w/v), HPLC, high assay result probably due to sampling problem
  ASSAY CBD: 0.1746 mg/mL
PVP K12 (3% w/v), HPLC
  ASSAY CBD: 0.0639 mg/mL
PVP K12 (5% w/v), HPLC
  ASSAY CBD: 0.0157 mg/mL
PVP K17 (1% w/v), HPLC
  ASSAY CBD: 0.0031 mg/mL
PVP K17 (2% w/v), HPLC
  ASSAY CBD: 0.0433 mg/mL
PVP K17 (3% w/v), HPLC
  ASSAY CBD: 0.0409 mg/mL
PVP K17 (5% w/v), HPLC
  ASSAY CBD: 0.2360 mg/mL
Pluronic F68 (1% w/v), HPLC
  ASSAY CBD: 0.1403 mg/mL
Pluronic F68 (2% w/v), HPLC
  ASSAY CBD: 0.5209 mg/mL
Pluronic F68 (3% w/v), HPLC
  ASSAY CBD: 0.5042 mg/mL
Pluronic F68 (5% w/v), HPLC
  ASSAY CBD: 1.0654 mg/mL
Polysorbate 80 (0.5% w/v), HPLC
  ASSAY CBD: 3.2600 mg/mL
Polysorbate 80 (1% w/v), HPLC
  ASSAY CBD: 6.0415 mg/mL
Polysorbate 80 (3% w/v), HPLC
  ASSAY CBD: 22.9779 mg/mL
Polysorbate 80 (5% w/v), HPLC
  ASSAY CBD: 30.6529 mg/mL
Saline (0.45% w/v), HPLC
  ASSAY CBD: 0.0021 mg/mL
Saline (0.9% w/v), HPLC
  ASSAY CBD: 0.0551 mg/mL
Sucrose (5% w/v), HPLC
  ASSAY CBD: 0.0202 mg/mL
Sucrose (10% w/v), HPLC
  ASSAY CBD: 0.0822 mg/mL
Trehalose (5% w/v), HPLC
  ASSAY CBD: 0.0600 mg/mL
Trehalose (10% w/v), HPLC
  ASSAY CBD: 0.0124 mg/mL
t-butyl alcohol (TBA), (100% v/v), visual observation
  ASSAY CBD: >600 mg/mL
